Measurements as given in patent US6897227B2, “Prodrugs of proton pump inhibitors” (Winston Pharmaceuticals, Inc., priority 2002, dated 2005).

How the values were obtained:
[1] = Aqueous solubility (water / distilled water); type: physicochemical; conditions: free carboxylic acids
Excerpt: A further significant advantage of the proton pump inhibitor prodrugs of the present invention relative to the proton pump inhibitor prodrugs disclosed in U.S. Pat. No. 6,093,734, 6,559,167 and PCT Publication WO 00109498 and to all other prior art is their increased solubility.

[2] = Stability in plasma at 37° C. (gradient HPLC-UV), rat plasma; type: in vitro ADME
Procedure: Exemplary test compounds (prodrugs) of the invention were incubated in plasma at 37° C., and the concentration of the compounds and also of the corresponding proton pump inhibitor compounds (PPI) were determined by a gradient HPLC-UV method. Although the half-lives of test compounds in plasma varies depending on their structure, nevertheless it is apparent that in plasma the compounds of the invention are converted into the corresponding proton pump inhibitor at a rate faster than the hydrolysis rate of the compound at neutral or near neutral pH.

[3] = Stability in Britton Robinson buffers (hydrolysis of prodrug to PPI, HPLC); conditions: Britton Robinson buffer, pH 7
Procedure: (§2) The stability of Compounds 1, 2, 3, 4 and 5 of the invention in aqueous solution (0.1 mg/mL) was investigated in Britton Robinson buffers of pH 3, pH 7, and pH 9, respectively. A solution of 0.1 mg/mL concentration of each compound in each buffer was prepared and the solutions were stored at 37° C. for 1 h and then the concentrations of test compounds were determined by HPLC.

[4] = Solubility in phosphate buffered saline buffer of pH 7.4 at 37° C.; type: physicochemical; conditions: aqueous buffer, sodium salts, phosphate buffered saline buffer pH 7.4, read-out: Solubility at 37° C. Conc.
Procedure: The solubility of the sodium salts of certain exemplary compounds of the present invention in a phosphate buffered saline buffer of pH 7.4 (50 mM sodium phosphate, 10 mM KCl, 0.1 M NaCl) and also in a more acidic Britton Robinson buffer of pH 3 (40 mM acetic acid, 40 mM phosphoric acid, 40 mM boric acid, 36 mM NaOH, and 19.6 mg/ml KCl) was also evaluated. […] The tested compounds were much less soluble little in the Britton Robinson buffer of pH 3, but still more soluble than the prior art compounds (a) through (f). This is understandable in view of the fact that in the buffer of pH 7.4 the compounds of the invention form a sodium salt, whereas in the buffer of pH 3 the compounds are less soluble free carboxylic acids. Thus, a solution of a sodium or other pharmaceutically acceptable salt of the compounds of the invention, or stated in an other way the compounds of the invention at pH 7 or above are highly soluble and therefore suitable for administration by intravenous injection.

gastric acid secretion = test: Inhibition of gastric acid secretion in rat, intravenous administration; type: in vivo; conditions: 5 μmole/kg
Procedure: (§1) 3 hours after administration the abdomen of the rat was incised and the pylorus was ligated under light ether anethesia. Histamine (30 mg/kg) and carbachol (30 μg/kg) were subcutaneously injected for acid stimulation. Immediately the abdomen was closed. Two hours later, the esophagus was ligated and the stomach was removed. The gastric juice was collected and acid output was quantified by titration using 0.1 N NaOH solution. As a control experiment, 1 ml of 50 mM phosphate buffer (pH 7.4) solution was orally administrated without any prodrug or proton pump inhibitory drug. Acid output was quantified by same method as described above, showing maximum histamine and carbachol-stimulated gastric acid secretion. Percentage inhibition was calculated from the fractional responses elicited by the test compound and a control experiment.
Inhibition of gastric acid secretion after intravenous administration of compounds of the invention was also examined. Lansoprazole sodium salt (20 mg) was dissolved in 40% hydroxypropyl-beta-cyclodextrin. The compounds of the invention used in this experiment were dissolved in phosphate buffered saline solution of pH 7.4. Each compound was injected intravenously at a dose of 5 μmole/kg or 10 μmole/kg (μmole per kg body weight of rat) as indicated in Table 4 below. Between 2 to 4 hours after injection gastric juice was collected, and the percentage of inhibition was determined as described above.

[5] = system: histamine and carbachol-stimulated gastric acid secretion; test: Inhibition of gastric acid secretion of the conscious male rat, oral administration; type: in vivo, rat (Sprague-Dawley); conditions: sodium salt
Procedure: Male rats (the Sprague-Dawley strain) were used in this experiment. OMEPRAZOLE sodium salt or LANSOPRAZOLE sodium salt (20 mg) was suspended in 10 ml of 0.1 N NaHCO3. 40 mg of each of the sodium salts of Compound 1, Compound 2, Compound 3, Compound 4, Compound 6 Compound 9, Compound 12, mixture (1:1) of Compound 16 and 17, mixture (1:1) of Compound 18 and 19, mixture (1:1) of Compound 20 and 21, mixture (1:1) of Compound 22 and 23, Compound 27, mixture (1:1) of Compound 34 and 35, and Compound 36 were dissolved in 10 ml of 50 mM sodium phosphate buffer, pH 7.4. The doses administered to the rats were as follows (μmole per kg body weight of the rat): OMEPRAZOLE (10 μmole/kg), LANSOPRAZOLE (10 μmole/kg), Compound 120 μmole/kg, Compound 2 40 μmole/kg, Compound 320 μmole/kg, Compound 420 μmole/kg, Compound 620 μmole/kg, Compound 940 μmole/kg, Compound 1240 μmole/kg, mixture (1:1) of Compound 16 and 17 40 μmole/kg, mixture (1:1) of Compound 18 and 19 40 μmole/kg, mixture (1:1) of Compound 20 and 21 40 μmole/kg, mixture (1:1) of Compound 22 and 23 40 μmole/kg, Compound 27 40 μmole/kg, mixture (1:1) of Compound 34 and 35 40 μmole/kg, and Compound 3640 μmole/kg. These drug solutions were orally administered.
as §1

[6] = buffer
Procedure: as §2

| solubility [1] [mg/mL] | half-life [2] [min] | half-life at 0.1 mg/mL [3] [h] | solubility [4] [mg/mL] | Half-life of hydrolysis at pH 7 of the prodrug to the corresponding proton pump inhibitory drug [6] | SMILES | % inhibition of gastric acid secretion between 2-4 hours after i.v. administration (gastric acid secretion) [%] | inhibition in vivo at 40 µmol/kg ([5]; 40 μmole/kg, read-out: % inhibition of gastric acid secretion between 3-5 hours after administration) [%] | % inhibition of gastric acid secretion between 3-5 hours after administration ([5]; 20 μmole/kg) [%] |
| --- | --- | --- | --- | --- | --- | --- | --- | --- |
| > 0.1 | 18 | > 50 | > 50 | – | Cc1c(OCC(F)(F)F)ccnc1C[S+]([O-])c1nc2ccccc2n1S(=O)(=O)c1ccc(OCC(=O)[O-])cc1.[Na+] (centres unmarked) [Compound 2, (4-{2-[3-Methyl-4-(2,2,2-trifluoro-ethoxy)-pyridin-2-ylmethanesulfinyl]-benzimidazole-1-sulfonyl}-phenoxy)acetic acid sodium salt] | 63.1 ± 31.7 | 64.2 ± 11.3 | – |
| – | – | – | – | over 50 hours | CCC(Oc1ccc(S(=O)(=O)n2c([S+]([O-])Cc3nccc(OCC(F)(F)F)c3C)nc3ccccc32)cc1)C(=O)O (centres unmarked) [Compound 4, 2-(4-{2-[3-Methyl-4-(2,2,2-trifluoro-ethoxy)-pyridin-2-ylmethanesulfinyl]-benzimidazole-1-sulfonyl}phenoxy)butric acid] | – | – | 60.9 ± 25.5 |
